In publication PMC7079562 (Bioorganic & Medicinal Chemistry, 2016):

target: SARS-CoV 3CL^pro (Severe acute respiratory syndrome coronavirus, UniProt P0C6X7); format: biochemical

| Structure (SMILES) | Inhibitory activity against SARS 3CLpro (in words) |
| --- | --- |
| CC1=NN(c2cccc(C(=O)O)c2)C(=O)/C1=C\c1ccc(-c2ccccc2)o1 [Compound 3l, 3-(3-Methyl-5-oxo-4-((5-phenylfuran-2-yl)methylene)-4,5-dihydro-1H-pyrazol-1-yl)benzoic acid] | unable to inhibit |
| O=C1/C(=C\c2ccc(-c3ccccc3)o2)C(c2ccccc2)=NN1c1ccccc1 [Compound 3j, 2,5-Diphenyl-4-((5-phenylfuran-2-yl)methylene)-2,4-dihydro-3H-pyrazol-3-one] | inactive |
| CC1=NN(c2ccccc2)C(=O)/C1=C\c1ccc(-c2cc(Cl)ccc2C(=O)O)o1 [Compound 3e, 4-Chloro-2-(5-((3-methyl-5-oxo-1-phenyl-1,5-dihydro-4H-pyrazol-4-ylidene)methyl)furan-2-yl)benzoic acid] | unable to inhibit |
